Experimental data from patent publication US12545674B2, “Crystal of trifluoromethyl/chloro disubstituted sulfonamide selective BCL-2 inhibitor” (priority 2020, dated 2026).

Assays:
[1] = Stability test of crystalline forms (high temperature, high humidity, irradiation; HPLC purity and crystal form); format: physicochemical
Method: Test samples were put into an open and proper clean container, and left to stand at 60° C. for 10 days. Samples were collected on day 5 and day 10;
Test samples were put into a closed humid container, and left to stand at 92.5%±5% RH/25° C. for 10 days. Samples were collected on day 5 and day 10;
Test samples were put into a lighting box or other suitable lighting devices (open) with fluorescent lamps at 4500 1×±500 1× for 10 days. Samples were collected on day 5 and day 10.
In the three conditions, the purity of the product and the contents of related substances were detected after the test samples were placed in the experimental conditions. • Instrument: Thermo U3000 high-performance liquid chromatography; • Detector: thermo VWD-3100 UV absorption detector/DAD-3000 diode array detector; • Chromatographic column: XSelect CSH C18 (4.6×150 mm, 3.5 μm); • Injection volume: 10 μL; detection wavelength: 280 nm; flow rate: 1.0 mL/min; column temperature: 30° C.; • Mobile phase: phase A: 0.1% of aqueous formic acid solution, phase B: acetonitrile, gradient elution; • Preparation of sample solution: An appropriate amount of the product was precisely, and dissolved in methanol. The solution was quantitatively diluted to obtain a solution containing about 0.5 mg per 1 mL as a test solution.

[2] = Hygroscopicity test (Chinese Pharmacopoeia General Chapter 9103); format: physicochemical; conditions: 25° C.±1° C., relative humidity 80%±2%, 24 h
Source text: For the method and conditions of the hygroscopicity test, please refer to the “Guidelines for the Hygroscopicity Test of Drugs” (General Chapter 9103, Chinese Pharmacopoeia, Volume IV, 2015 Edition). Hygroscopicity refers to the capability or degree of a substance for absorbing water in certain temperature and humidity conditions. The test samples were solid drug substances meeting the specifications, and the test results may be used as a reference for selection of suitable drug packaging and storage conditions. • (1) A dried glass weighing bottle with a plug (outer diameter: 50 mm; height: 15 mm) was taken and placed in a suitable thermostatic dryer (with saturated ammonium chloride or ammonium sulfate solution placed in the lower part) at 25° C.±1° C. or an artificial climate box (with a set temperature at 25° C.±1° C. and relative humidity at 80%±2%) on the day before the test, and the weight (m1) was precisely measured. • (2) An appropriate amount of test sample was taken and spread in the above weighing bottle, with the thickness of the test sample being about 1 mm in general, and the weight (m2) was precisely measured. • (3) The weighing bottle was opened and placed in the above conditions at constant temperature and humidity for 24 h together with the cap. • (4) The weighing bottle was capped, and the weight (m3) was precisely measured.

[3] = High humidity 92.5 ± 5% RH/25° C., Day 0
[4] = High humidity 92.5 ± 5% RH/25° C., Day 5
[5] = High humidity 92.5 ± 5% RH/25° C., Day 10
[6] = High temperature 60° C., open container, Day 0
[7] = High temperature 60° C., open container, Day 5
[8] = High temperature 60° C., open container, Day 10
[9] = Irradiation 4500 ± 500 lx, Day 0
[10] = Irradiation 4500 ± 500 lx, Day 5
[11] = Irradiation 4500 ± 500 lx, Day 10

Row | Compound | Crystalline form [1, 3] | Purity [1, 3] [%] | Crystalline form [1, 4] | Purity [1, 4] [%] | Crystalline form [1, 5] | Purity [1, 5] [%] | Crystalline form ([1]; High temperature 60° C., Day 0) | Crystalline form ([1]; High temperature 60° C., Day 5) | Crystalline form ([1]; High temperature 60° C., Day 10) | Purity [1, 6] [%] | Purity [1, 7] [%] | Purity [1, 8] [%] | Crystalline form [1, 9] | Purity [1, 9] [%] | Crystalline form [1, 10] | Purity [1, 10] [%] | Crystalline form [1, 11] | Purity [1, 11] [%] | Hygroscopic weight gain [2] [wt %]
1 | CC1(C)CCC(CN2CCN(c3ccc(C(=O)NS(=O)(=O)c4ccc(NC[C@H]5COCCO5)c([N+](=O)[O-])c4)c(Oc4cnc5[nH]ccc5c4)c3)CC2)=C(c2ccc(C(F)(F)F)cc2Cl)C1 [Amorphous form] | Amorphous | 97.91 | Amorphous | 97.85 | Amorphous | 97.89 | Amorphous | Amorphous | Amorphous | 97.91 | 97.51 | 97.33 | Amorphous | 97.91 | Amorphous | 95.96 | Amorphous | 93.83 | 
2 | CC1(C)CCC(CN2CCN(c3ccc(C(=O)NS(=O)(=O)c4ccc(NC[C@H]5COCCO5)c([N+](=O)[O-])c4)c(Oc4cnc5[nH]ccc5c4)c3)CC2)=C(c2ccc(C(F)(F)F)cc2Cl)C1 [Crystalline form A] |  | 97.92 |  | 97.84 |  | 97.91 |  |  |  | 97.92 | 97.41 | 97.17 |  | 97.92 |  | 97.07 |  | 96.62 | 1.38
3 | CC1(C)CCC(CN2CCN(c3ccc(C(=O)NS(=O)(=O)c4ccc(NC[C@H]5COCCO5)c([N+](=O)[O-])c4)c(Oc4cnc5[nH]ccc5c4)c3)CC2)=C(c2ccc(C(F)(F)F)cc2Cl)C1 [Crystalline form B] |  | 98.44 |  | 98.45 |  | 98.36 |  |  |  | 98.44 | 98.34 | 98.22 |  | 98.44 |  | 98.22 |  | 97.68 | 0.30
4 | CC1(C)CCC(CN2CCN(c3ccc(C(=O)NS(=O)(=O)c4ccc(NC[C@H]5COCCO5)c([N+](=O)[O-])c4)c(Oc4cnc5[nH]ccc5c4)c3)CC2)=C(c2ccc(C(F)(F)F)cc2Cl)C1 [Crystalline form C] |  | 98.56 |  | 98.70 |  | 98.64 |  |  |  | 98.56 | 98.25 | 97.31 |  | 98.56 |  | 98.45 |  | 98.15 | 0.11

Continued, values first:

Row | Crystalline form [1, 3] | Purity [1, 3] [%] | Crystalline form [1, 4] | Purity [1, 4] [%] | Crystalline form [1, 5] | Purity [1, 5] [%] | Crystalline form ([1]; High temperature 60° C., Day 0) | Crystalline form ([1]; High temperature 60° C., Day 5) | Crystalline form ([1]; High temperature 60° C., Day 10) | Purity [1, 6] [%] | Purity [1, 7] [%] | Purity [1, 8] [%] | Crystalline form [1, 9] | Purity [1, 9] [%] | Crystalline form [1, 10] | Purity [1, 10] [%] | Crystalline form [1, 11] | Purity [1, 11] [%] | Hygroscopic weight gain [2] [wt %] | Compound
5 |  |  |  |  |  |  |  |  |  |  |  |  |  |  |  |  |  |  | 0.75 | CC1(C)CCC(CN2CCN(c3ccc(C(=O)NS(=O)(=O)c4ccc(NC[C@H]5COCCO5)c([N+](=O)[O-])c4)c(Oc4cnc5[nH]ccc5c4)c3)CC2)=C(c2ccc(C(F)(F)F)cc2Cl)C1 [Crystalline form D]
6 |  | 98.02 |  |  |  | 97.89 |  |  |  | 98.02 |  | 97.88 |  | 98.02 |  |  |  | 97.71 | 0.11 | CC1(C)CCC(CN2CCN(c3ccc(C(=O)NS(=O)(=O)c4ccc(NC[C@H]5COCCO5)c([N+](=O)[O-])c4)c(Oc4cnc5[nH]ccc5c4)c3)CC2)=C(c2ccc(C(F)(F)F)cc2Cl)C1 [Crystalline form E]
7 |  |  |  |  |  |  |  |  |  |  |  |  |  |  |  |  |  |  | 0.76 | CC1(C)CCC(CN2CCN(c3ccc(C(=O)NS(=O)(=O)c4ccc(NC[C@H]5COCCO5)c([N+](=O)[O-])c4)c(Oc4cnc5[nH]ccc5c4)c3)CC2)=C(c2ccc(C(F)(F)F)cc2Cl)C1 [Crystalline form F]
8 |  |  |  |  |  |  |  |  |  |  |  |  |  |  |  |  |  |  | 0.25 | CC1(C)CCC(CN2CCN(c3ccc(C(=O)NS(=O)(=O)c4ccc(NC[C@H]5COCCO5)c([N+](=O)[O-])c4)c(Oc4cnc5[nH]ccc5c4)c3)CC2)=C(c2ccc(C(F)(F)F)cc2Cl)C1 [Crystalline form H]
